In patent US20260199254A1, “COMPOSITIONS AND METHODS OF USE THEREOF FOR INCREASING IMMUNE RESPONSES” (priority 2022, published 2026):

Legend:
EL4 cells [1] = experiment: Intracellular calcium levels (Fluo-3AM); assay type: cell-based; conditions: same calcium concentration
Method: Changes in intracellular calcium levels were measured using Fluo-3AM as an indicator.

[2] = test system: B16F10-OVA-tumor-bearing C57BL/6 mice
EL4 cells [3] = conditions: dose as equivalent calcium concentration
BMDCs [4] = experiment: [Ca2+]int measurement (Fluo-3 AM); assay type: cell-based, mouse; conditions: 5 or 10 μg/mL Ca
Method: Fluo-3 AM kit (Cayman, 14960) was used to measure [Ca2+]int in BMDCs after treatment with AnCHNPs. Briefly, BMDCs were seeded into a 96-well plate at a density of 1×10^4 cells per well and incubated overnight. At different time points (0, 1, 2, 4, 8, and 24 hrs), medium was taken from the well, replenished with prewarmed (37° C.) probe-containing medium (to a final concentration of 5 μM). Cells were incubated for 30 mins under the same growth conditions. Then the loading solution was replaced with fresh medium, removing dye molecules nonspecifically attached to cell surface. Cells were incubated for another 30 mins to allow for complete de-esterification of the acetoxymethyl esters. Fluorescence (ex/em: 485/520 nm) was recorded on a microplate reader (Synergy Mx, BioTeK).

[5] = test system: BMDCs/B16F10-OVA (pre-irradiated, 100 Gy) co-cultures; experiment: DC activation and antigen-presentation in co-culture (flow cytometry, ELISA); assay type: cell-based, mouse; conditions: comparators
CFSE-labeled BMDCs = experiment: Transwell DC migration assay; assay type: cell-based, mouse; conditions: 5 or 10 μg/mL, 24 h, B16F10-OVA in lower chamber
BMDCs [6] = experiment: BMDC maturation, flow cytometry for MHC-II and CD205; assay type: cell-based, mouse; conditions: 5 or 10 μg/mL, 24 h, no cancer cells
Method: Maturation BMDCs were seeded onto a 6-well plate at a density of 1×10^6 cells per well one day before the experiment. BMDCs were treated with PBS, CaCl2 solution (5 or 10 μg/mL), and AnCHNPs (5 or 10 μg/mL). After incubation for 24 hrs, supernatant was removed, and BMDCs were harvested by cell lifter. BMDCs were subsequently stained with MHCII-FITC (#107616) and CD205-APC (#138206) and analyzed flow cytometry. Also, BMDCs were treated with SiO2-PEG shell (10 μg/mL), harvested after 24 hrs incubation, stained with MHCII-FITC (#107616), CD80-PerCP-Cy5.5 (#560526), CD86-BV605 (#563055), CD40-PE (#12-0401-83), and OVA-APC (#17-5743-82), and analyzed by flow cytometry.

BMDCs [7] = experiment: Cell uptake of Cy5-labeled nanoparticles by flow cytometry; assay type: cell-based, mouse; conditions: co-incubation with Cy5-labeled AnCHNPs 5 μg/mL
Method: BMDCs were seeded into 6-well plates at a density of 1×10^6 cells per well and incubated overnight. The cells were then treated with Cy-5 labeled PCHNPs and AnCHNPs (5 μg/mL) for 2 hrs. Furthermore, different endocytosis inhibitors Sodium azide (NaN3, 99.5%, Sigma-Aldrich, Lot #S2002), Dynasore (C18H14N2O4, 98%, Sigma-Aldrich, Lot #324410), Nystatin (Sigma-Aldrich, Lot #N4014), Chlorpromazine (C17H19ClN2S·HCl, 98%, Sigma-Aldrich, Lot #C8138) were used. The Fluorescence of Cy-5 taken up by DCs were measured by flow cytometry.

[8] = test system: C57BL/6 mice bearing B16F10-OVA tumors; experiment: Therapy study, combination with chemotherapy (carboplatin); assay type: in vivo; conditions: carboplatin alone, 40 mg/kg i.p.
Method: Combination with chemotherapy: This was investigated in C57BL/6 mice bearing B16F10-OVA tumors. When tumor sizes reached ~50 mm3, the animals were randomized to receive the following treatments (n=5 for each group): (1) PBS (i.t., 50 μL*2, Day 0 and Day 2); (2) Carboplatin (i.p., 40 mg/kg, 100 μL, Day 0); (3) Carboplatin (i.p., 40 mg/kg, 100 μL, Day 0)+AnCHNPs (i.t., 200 μg/kg*2, 50 μL, Day 0 and Day 2). The tumor size and body weight were inspected daily. The tumor was measured in two dimensions with a caliper and tumor volume was estimated as (length)×(width) 2/2.

EL4 cells [9] = experiment: Cellular uptake of Cy5-labelled nanoparticles in EL4 cells; assay type: cell-based; conditions: EL4, co-incubation

SMILES: [Ca+2].[Cl-].[Cl-] [CaCl2, calcium chloride]
- intracellular calcium levels (EL4 cells [1]): did not increase cellular calcium levels
- IFN-γ+ CTL frequency, splenocytes co-incubated with B16F10-OVA cells ex vivo ([2]; 6 h co-incubation): marginal T cell activation
- change of serum cytokine levels (IL-1β, IL-6, TNF-α, IFN-γ, IL-12 elevated, IL-10 decreased) ([2]; Day 3 and Day 7, relative to PBS control, comparator): not
- frequency of Tregs (CD45+CD3+CD4+Foxp3+) in tumors ([2]; RT 10 Gy + 200 μg/kg i.t.): minimum impact
- tumor-infiltration of cytotoxic T cells (CTLs, CD45+CD3+CD8+) ([2]; RT 10 Gy + 200 μg/kg i.t., tumor, Day 7): minimum impact
- Ca2+ concentration at which an effect on cell viability / significant toxicity appears (EL4 cells [3]): ≥ 100 µg/mL
- [Ca2+]int change (BMDCs [4]): little [Ca^2+]int increase
- impact on DC activation [5]: no positive impact on DC activation
- numbers of DCs migrating to the bottom chamber (CFSE-labeled BMDCs): minimally affected DC migration
- CD205 expression in DCs (BMDCs [6]): no impact
- population and expression levels (MFI) of MHC-II+ DCs (BMDCs [6]; relative to untreated DCs): no impact

SMILES: [N-]=[N+]=[N-].[Na+] [azide, Sodium azide]
- effect of endocytosis inhibitor on AnCHNPs uptake by DCs (BMDCs [7]): reduced

SMILES: N.N.O=C([O-])C1(C(=O)[O-])CCC1.[Pt+2] [carboplatin]
- average survival [8]: 15 days
- time by which all animals died [8]: ≤ 3 weeks
- tumor growth [8]: only marginally retarded tumor growth

SMILES: CN(C)CCCN1c2ccccc2Sc2ccc(Cl)cc21 [chlorpromazine, Chlorpromazine]
- effect of endocytosis inhibitor on AnCHNPs uptake by DCs (BMDCs [7]): inhibited

SMILES: O=C(N/N=C/c1ccc(O)c(O)c1)c1cc2ccccc2cc1O [dynasore, Dynasore]
- effect of endocytosis inhibitor on uptake of PMA@CCNP-Ab (EL4 cells [9]): decreased
- effect of endocytosis inhibitor on AnCHNPs uptake by DCs (BMDCs [7]): inhibited

SMILES: C[C@@H]1[C@H](O)[C@@H](C)/C=C/C=C/CC/C=C/C=C/C=C/C=C/C(O[C@H]2O[C@H](C)[C@@H](O)[C@H](N)[C@@H]2O)CC2O[C@](O)(CC(O)C(O)CCC(O)CC(O)CC(O)CC(=O)O[C@H]1C)CC(O)C2C(=O)O (some centres unmarked) [nystatin, Nystatin]
- effect of endocytosis inhibitor on uptake of PMA@CCNP-Ab (EL4 cells [9]): did not inhibit cellular uptake
- effect of endocytosis inhibitor on AnCHNPs uptake by DCs (BMDCs [7]): had no effect on the particle uptake
